Assay results published in patent US10118131B2, “Method for preventing microbial growth on a filtration membrane” (KEMIRA OYJ, priority 2011, dated 2018).

Legend:
[1] = Flux of membrane before and after soaking in biocide in synthetic sea water (flat sheet cell); settings: for Initial flux: before soaking
Method: Flux and salt rejection of fresh membrane were measured before and after soaking. The membrane was placed in a flat sheet cell (Alfa Laval LabM20). The operating conditions were, feed pressure 20 bar (for sea water membrane 55 bar), salt (synthetic sea water prepared according to ASTM standard D1141), temperature 25° C. The flux measurement was done for 3 hours.
Soaking was done by mixing biocide with synthetic sea water. The concentration of the added biocide in the synthetic sea water was for PFA 14 and 84 mg/l as active substance, for peracetic acid (PAA) 7, 18 and 35 mg/l as active substance and sodium hypochlorite 20 mg/l as active substance. PFA was added to the synthetic seawater as an equilibrium solution having PFA content 14 weight-%, PAA was added as an equilibrium solution having PAA content 35 weight-% and sodium hypochlorite having concentration of 15 weight-%.
The soaking time was 24 or 144 hours. Performic acid equilibrium solution was made by mixing in 1:1 weight proportion of a solution that contained 50% hydrogen peroxide with a solution that contained 75 weight-% formic acid, 12 weight-% sulfuric acid and 13 weight-% water. After soaking membranes were placed again to the flat sheet cell and salt rejection and flux were measured at the same conditions as before soaking.

[2] = Laboratory scale continuous filtration experiment, PFA added continuously into feed
Method: The impact of PFA on membrane was further studied by a laboratory scale continuous filtration experiment. The type of membrane used in the experiment was brackish water membrane (FilmTec BW30LE).
The continuous filtration has been done in parallel. From a single brackish water tank the water was pumped to two parallel lines with flat sheet cells having similar brackish water membrane. In one line PFA was added continuously into feed and in other line (control) there was no PFA addition. The filtration conditions were as follows: pressure 15 bar, salt (sea salt): 2 g/l, Temperature: 20° C., flow rate: 48 l/h, PFA dosing rate: 6.5 g/h equilibrium solution having PFA active substance concentration 14 weight-% (=19.8 ppm active substance/l of brackish water). Flux and conductivity of permeate and concentrate were monitored and collected over time (for 30 days).

Q: Which “differences between flux before and after soaking” value ([1]; not told) does the source give for `[Na+].[O-]Cl` [Hypochlorite, sodium hypochlorite] here?
A: The value was > 15%.

Q: Which Flux after soaking ([1]; 7 mg/l active substance in synthetic sea water, soaking 144 hour) does the source give for `CC(=O)OO` [Peracetic acid, peracetic acid] here?
A: Its Flux after soaking is 73.

Q: What about the Flux after soaking ([1]; 18 mg/l active substance in synthetic sea water, soaking 144 hour) of the same compound?
A: The Flux after soaking was 53.

Q: What about the Flux after soaking ([1]; 35 mg/l active substance in synthetic sea water, soaking 144 hour) of the same compound?
A: Its Flux after soaking is 44.

Q: And the Initial flux ([1]; membrane later soaked at 7 mg/l active substance, 144 hour)?
A: The Initial flux was 86.

Q: And the Initial flux ([1]; membrane later soaked at 18 mg/l active substance, 144 hour)?
A: Its Initial flux is 91.

Q: What about the Initial flux ([1]; membrane later soaked at 35 mg/l active substance, 144 hour) of the same compound?
A: The Initial flux was 86.

Q: Which results are given for `O=COO` [Performic acid, performic acid]?
A: Flux after soaking ([1]; 14 mg/l active substance in synthetic sea water, soaking 144 hour): 84; Flux after soaking ([1]; 84 mg/l active substance in synthetic sea water, soaking 24 hour): 95; Initial flux ([1]; membrane later soaked at 14 mg/l active substance, 144 hour): 86; Initial flux ([1]; membrane later soaked at 84 mg/l active substance, 24 hour): 98; differences between flux before and after soaking ([1]; soaked membranes of Table 1): less than 15%; Initial permeate flux ([2]; 19.8 ppm active substance continuously in feed, 15 bar, sea salt 2 g/l, 20° C.): 250 g/h; Final permeate flux ([2]; 19.8 ppm active substance continuously in feed, 30 days, 15 bar, sea salt 2 g/l, 20° C.): 250 g/h; changes in flux over test period ([2]; FIG. 1 B, PFA added continuously, 30 days): small
